Test system: IFNα induced TYK2/JAK1 mediated STAT activation
Assay: Luciferase assay in L929 ISRE cells stimulated with IFN-α
Assay type: cell-based
Conditions: Mus musculus, IFN-α 100 ng/mL; for inhibition at 0.05 µM: 50 nM compound, read-out: Inhibitory activity % (50 nM); for inhibition at 0.2 µM: 200 nM compound, read-out: Inhibitory activity % (200 nM); for inhibition at 1 µM: 1000 nM compound, read-out: Inhibitory activity % (1000 nM)
Protocol: • 1. L929 ISRE cells (5000 cells/well) were seeded on 96-well plates and incubated overnight at room temperature-; • 2. The cells were pretreated by adding different concentrations (10 nM, 50 nM, 100 nM, 200 nM or 1000 nM) of the test compounds for 2 hours; • 3. Added IFN-α (100 ng/mL) to stimulate cells for 6 hours; • 4. Removed the upper medium, add PBS (100 μL) and washed, then removed PBS; • 5. Added PLB lysis solution (50 μL) to each well, shook the well for 15 minutes; • 6. Transferred PLB lysis solution (30 μL) to a new 96-well whiteboard, added LAR II reagent (LAR II), then quickly read the 450 nm OD value with a plate washer; • 7. Added Stop & Glo reagent (30 μL), then read the 450 nm OD value using the plate washer. • 8. The final result was the OD value in step 6/OD value in step 7.

Work on COc1c(Nc2cc(NC(=O)C3CC3)nnc2C(N)=O)ncnc1-c1cc(P(=O)(C2CC2)C2CC2)n(C)n1 [Compound A3, 6-(cyclopropanecarboxamido)-4-((6-(5-(dicyclopropylphosphoryl)-1-methyl-1H-pyrazol-3-yl)-5-methoxypyrimidin-4-yl)amino)pyridazine-3-carboxamide] yielded an inhibition at 0.05 µM of 34%, an inhibition at 0.2 µM of 39% and an inhibition at 1 µM of 71%.

For COc1c(Nc2cc(Nc3ccccn3)nnc2C(N)=O)cccc1-c1cc(P(=O)(C2CC2)C2CC2)n(C)n1 [Compound A4, 4-((3-(5-(dicyclopropylphosphoryl)-1-methyl-1H-pyrazol-3-yl)-2-methoxyphenyl)amino)-6-(pyridin-2-ylamino)pyridazine-3-carboxamide], the inhibition at 0.05 µM was 61%, the inhibition at 0.2 µM was 93% and the inhibition at 1 µM was 99%.

In the case of COc1ccc(Nc2cc(Nc3cccc(-c4cc(P(=O)(C5CC5)C5CC5)n(C)n4)c3OC)c(C(N)=O)nn2)nc1 [Compound A5], the inhibition at 0.05 µM is reported as 91%, the inhibition at 0.2 µM is reported as 97% and the inhibition at 1 µM is reported as 99%.

CCP(=O)(CC)c1cc(-c2cccc(Nc3cc(NC(=O)C4CC4)nnc3C(N)=O)c2OC)nn1C [Compound A6, 6-(cyclopropanecarboxamido)-4-((3-(5-(diethylphosphoryl)-1-methyl-1H-pyrazol-3-yl)-2-methoxyphenyl)amino)pyridazine-3-carboxamide] was tested, and the inhibition at 0.05 µM was 23%, the inhibition at 0.2 µM was 28% and the inhibition at 1 µM was 96%.

COc1c(Nc2cc(NC(=O)C3CC3)nnc2C(N)=O)cccc1-c1ncc(P(C)(C)=O)cn1 [Compound A7, 6-(cyclopropanecarboxamido)-4-((3-(5-(dimethylphosphoryl)pyrimidin-2-yl)-2-methoxyphenyl)amino)pyridazine-3-carboxamide] gave an inhibition at 0.05 µM of 18%, an inhibition at 0.2 µM of 25% and an inhibition at 1 µM of 64%.

COc1c(Nc2cc(N3CCCC3)nnc2C(N)=O)cccc1-c1cc(P(=O)(C2CC2)C2CC2)n(C)n1 [Compound A11, 4-((3-(5-(dicyclopropylphosphoryl)-1-methyl-1H-pyrazol-3-yl)-2-methoxyphenyl)amino)-6-(pyrrolidin-1-yl)pyridazine-3-carboxamide] showed an inhibition at 0.05 µM of 6%, an inhibition at 0.2 µM of 86% and an inhibition at 1 µM of 95%.

For COc1c(-c2cc(P(=O)(C3CC3)C3CC3)n(C)n2)ccnc1Nc1cc(N)nnc1C(N)=O [Compound A13, 6-Amino-4-((4-(5-(dicyclopropylphosphoryl)-1-methyl-1H-pyrazol-3-yl)-3-methoxypyridin-2-yl)amino)pyridazine-3-carboxamide], the inhibition at 0.05 µM was 9%, the inhibition at 0.2 µM was 71% and the inhibition at 1 µM was 95%.

With CCP(=O)(CC)c1cnc(-c2cccc(Nc3cc(NC(=O)C4CC4)nnc3C(N)=O)c2OC)nc1 [Compound A14] the inhibition at 0.2 µM was 23% and the inhibition at 1 µM was 76%.

COc1c(-c2cc(P(=O)(C3CC3)C3CC3)n(C)n2)ccnc1Nc1cc(NC(=O)C2CC2)nnc1C(N)=O [Compound A18, 6-(cyclopropanecarboxamido)-4-((4-(5-(dicyclopropylphosphoryl)-1-methyl-1H-pyrazol-3-yl)-3-methoxypyridin-2-yl)amino)pyridazine-3-carboxamide] showed an inhibition at 0.05 µM of 62%, an inhibition at 0.2 µM of 79% and an inhibition at 1 µM of 79%.

In the case of COc1c(Nc2nc(NC(=O)C3CC3)ncc2C(N)=O)cccc1-c1cc(P(=O)(C2CC2)C2CC2)n(C)n1 [Compound A19, 2-(cyclopropanecarboxamido)-4-((3-(5-(dicyclopropylphosphoryl)-1-methyl-1H-pyrazol-3-yl)-2-methoxyphenyl)amino)pyrimidine-5-carboxamide], the inhibition at 0.2 µM is reported as 28% and the inhibition at 1 µM is reported as 71%.

Work on CNC(=O)Nc1cc(Nc2cccc(-c3cc(P(=O)(C4CC4)C4CC4)n(C)n3)c2OC)c(C(N)=O)nn1 [Compound A21] yielded an inhibition at 0.05 µM of 16%, an inhibition at 0.2 µM of 39% and an inhibition at 1 µM of 74%.

Work on COC(=O)Nc1cc(Nc2cccc(-c3cc(P(=O)(C4CC4)C4CC4)n(C)n3)c2OC)c(C(N)=O)nn1 [Compound A23] yielded an inhibition at 0.2 µM of 38% and an inhibition at 1 µM of 85%.

Molecule [2H]C([2H])([2H])n1nc(-c2cccc(Nc3cc(NC(=O)C4CC4)nnc3C(N)=O)c2OC)cc1P(=O)(C1CC1)C1CC1 [Compound A24, 6-(cyclopropanecarboxamido)-4-((3-(5-(dicyclopropylphosphoryl)-1-(methyl-d3)-1H-pyrazol-3-yl)-2-methoxyphenyl)amino)pyridazine-3-carboxamide] has an inhibition at 0.05 µM of 39%, an inhibition at 0.2 µM of 90% and an inhibition at 1 µM of 95%.

In the case of COc1c(Nc2cc(Nc3ccccn3)nnc2C(N)=O)cccc1-c1cc(P(C)(C)=O)n(C)n1 [Compound A26], the inhibition at 1 µM is reported as 80%.

With COc1ccc(Nc2cc(Nc3cccc(-c4cc(P(C)(C)=O)n(C)n4)c3OC)c(C(N)=O)nn2)nc1 [Compound A30] the inhibition at 0.05 µM was 14%, the inhibition at 0.2 µM was 58% and the inhibition at 1 µM was 90%.

In the case of COc1c(Nc2cc(Nc3ccc(C#N)cn3)nnc2C(N)=O)cccc1-c1cc(P(C)(C)=O)n(C)n1 [Compound A31], the inhibition at 0.05 µM is reported as 9%, the inhibition at 0.2 µM is reported as 54% and the inhibition at 1 µM is reported as 75%.

With COc1c(Nc2cc(Nc3ccc(F)cn3)nnc2C(N)=O)cccc1-c1cc(P(C)(C)=O)n(C)n1 [Compound A33] the inhibition at 0.05 µM was 45%, the inhibition at 0.2 µM was 62% and the inhibition at 1 µM was 81%.

In the case of COc1c(Nc2cc(Nc3cccc(C#N)n3)nnc2C(N)=O)cccc1-c1cc(P(=O)(C2CC2)C2CC2)n(C)n1 [Compound A34], the inhibition at 0.05 µM is reported as 17%, the inhibition at 0.2 µM is reported as 67% and the inhibition at 1 µM is reported as 95%.

With COc1c(Nc2cc(Nc3ncccn3)nnc2C(N)=O)cccc1-c1cc(P(=O)(C2CC2)C2CC2)n(C)n1 [Compound A38] the inhibition at 0.05 µM was 36%, the inhibition at 0.2 µM was 66% and the inhibition at 1 µM was 89%.

For COc1c(Nc2cc(Nc3cnccn3)nnc2C(N)=O)cccc1-c1cc(P(=O)(C2CC2)C2CC2)n(C)n1 [Compound A39], the inhibition at 0.05 µM was 59%, the inhibition at 0.2 µM was 78% and the inhibition at 1 µM was 97%.

COc1c(Nc2cc(Nc3ccncn3)nnc2C(N)=O)cccc1-c1cc(P(=O)(C2CC2)C2CC2)n(C)n1 [Compound A40] showed an inhibition at 0.05 µM of 61%, an inhibition at 0.2 µM of 80% and an inhibition at 1 µM of 96%.

[2H]C([2H])([2H])n1ccc(Nc2cc(Nc3cccc(-c4cc(P(=O)(C5CC5)C5CC5)n(C)n4)c3OC)c(C(N)=O)nn2)n1 [Compound A41] gave an inhibition at 0.05 µM of 55%, an inhibition at 0.2 µM of 90% and an inhibition at 1 µM of 95%.

For CCn1ccc(Nc2cc(Nc3cccc(-c4cc(P(=O)(C5CC5)C5CC5)n(C)n4)c3OC)c(C(N)=O)nn2)n1 [Compound A42], the inhibition at 0.05 µM was 76%, the inhibition at 0.2 µM was 90% and the inhibition at 1 µM was 92%.

Molecule COc1c(Nc2cc(Nc3ncccc3C#N)nnc2C(N)=O)cccc1-c1cc(P(=O)(C2CC2)C2CC2)n(C)n1 [Compound A43] has an inhibition at 0.05 µM of 0%, an inhibition at 0.2 µM of 18% and an inhibition at 1 µM of 64%.

COc1c(Nc2cc(NC(=O)C3C[C@H]3F)nnc2C(N)=O)cccc1-c1cc(P(=O)(C2CC2)C2CC2)n(C)n1 (stereo partly drawn) [Compound A47] showed an inhibition at 0.05 µM of 8%, an inhibition at 0.2 µM of 19% and an inhibition at 1 µM of 62%.

Molecule COc1c(Nc2cc(NC(=O)C3CC3)nnc2C(N)=O)cccc1-c1cc(P(=O)(C2CC2)C2CC2)[nH]n1 [Compound A48, 6-(cyclopropanecarboxamido)-4-((3-(5-(dicyclopropylphosphoryl)-1H-pyrazol-3-yl)-2-methoxyphenyl)amino)pyridazine-3-carboxamide] has an inhibition at 0.05 µM of 17%, an inhibition at 0.2 µM of 56% and an inhibition at 1 µM of 76%.

Work on COc1c(Nc2cc(Nc3cc(C)ccn3)nnc2C(N)=O)cc(F)cc1-c1cc(P(C)(C)=O)n(C)n1 [Compound A51, 4-((3-(5-(dimethylphosphoryl)-1-methyl-1H-pyrazol-3-yl)-5-fluoro-2-methoxyphenyl)amino)-6-((4-methylpyridin-2-yl)amino)pyridazine-3-carboxamide] yielded an inhibition at 0.05 µM of 55%, an inhibition at 0.2 µM of 82% and an inhibition at 1 µM of 86%.

Work on COc1c(Nc2cc(Nc3cc(C)ccn3)nnc2C(N)=O)cccc1-c1cc(P(C)(C)=O)n(C2CC2)n1 [Compound A52] yielded an inhibition at 0.2 µM of 9% and an inhibition at 1 µM of 63%.

Work on COc1c(-c2cc(P(C)(C)=O)n(C)n2)ccnc1Nc1cc(Nc2cc(C)ccn2)nnc1C(N)=O [Compound A55, 4-((4-(5-(dimethylphosphoryl)-1-methyl-1H-pyrazol-3-yl)-3-methoxypyridin-2-yl)amino)-6-((4-methylpyridin-2-yl)amino)pyridazine-3-carboxamide] yielded an inhibition at 0.05 µM of 34%, an inhibition at 0.2 µM of 63% and an inhibition at 1 µM of 90%.

[2H]C([2H])([2H])n1nc(-c2cc(F)cc(Nc3cc(Nc4cc(C)ccn4)nnc3C(N)=O)c2OC)cc1P(C)(C)=O [Compound A56] showed an inhibition at 0.05 µM of 31%, an inhibition at 0.2 µM of 70% and an inhibition at 1 µM of 95%.

For COc1c(Nc2cc(Nc3cc(C)ccn3)nnc2C(N)=O)cncc1-c1cc(P(C)(C)=O)n(C2CC2)n1 [Compound A58], the inhibition at 1 µM was 86%.

In the case of [2H]C([2H])([2H])n1nc(-c2cccc(Nc3cc(Nc4cnccn4)nnc3C(N)=O)c2OC)cc1P(=O)(C1CC1)C1CC1 [Compound A59], the inhibition at 1 µM is reported as 86%.

For COc1c(-c2cc(P(C)(C)=O)n(C3CC3)n2)ccnc1Nc1cc(Nc2cc(C)ccn2)nnc1C(N)=O [Compound A60], the inhibition at 1 µM was 66%.

Source: US20260001898A1, “Heteroaryl compounds as inhibitors of TYK2/JAK1, composition and application thereof” (Accro Bioscience (HK) Limited, priority 2022, published 2026)
